Test results reported in patent publication US20220306617A1, “SUBSTITUTED 1,3-PHENYL HETEROARYL DERIVATIVES AND THEIR USE IN THE TREATMENT OF DISEASE” (NOVARTIS AG, priority 2019, published 2022).
Where a name gives a salt, the structure may show the parent alone.

Biological target: T1, abc isoform of human TMEM16A channel expressed in CHO cells (Homo sapiens, UniProt Q5XXA6, DEL476-501)
T1 construct: expressed in transfected cells; host or cells: CHO cells, doxycycline-inducible expression under Blasticidin/Zeocin selection
T1 sequence (Q5XXA6 with tags, fused parts or gaps isoform Q5XXA6-5 DEL539-564): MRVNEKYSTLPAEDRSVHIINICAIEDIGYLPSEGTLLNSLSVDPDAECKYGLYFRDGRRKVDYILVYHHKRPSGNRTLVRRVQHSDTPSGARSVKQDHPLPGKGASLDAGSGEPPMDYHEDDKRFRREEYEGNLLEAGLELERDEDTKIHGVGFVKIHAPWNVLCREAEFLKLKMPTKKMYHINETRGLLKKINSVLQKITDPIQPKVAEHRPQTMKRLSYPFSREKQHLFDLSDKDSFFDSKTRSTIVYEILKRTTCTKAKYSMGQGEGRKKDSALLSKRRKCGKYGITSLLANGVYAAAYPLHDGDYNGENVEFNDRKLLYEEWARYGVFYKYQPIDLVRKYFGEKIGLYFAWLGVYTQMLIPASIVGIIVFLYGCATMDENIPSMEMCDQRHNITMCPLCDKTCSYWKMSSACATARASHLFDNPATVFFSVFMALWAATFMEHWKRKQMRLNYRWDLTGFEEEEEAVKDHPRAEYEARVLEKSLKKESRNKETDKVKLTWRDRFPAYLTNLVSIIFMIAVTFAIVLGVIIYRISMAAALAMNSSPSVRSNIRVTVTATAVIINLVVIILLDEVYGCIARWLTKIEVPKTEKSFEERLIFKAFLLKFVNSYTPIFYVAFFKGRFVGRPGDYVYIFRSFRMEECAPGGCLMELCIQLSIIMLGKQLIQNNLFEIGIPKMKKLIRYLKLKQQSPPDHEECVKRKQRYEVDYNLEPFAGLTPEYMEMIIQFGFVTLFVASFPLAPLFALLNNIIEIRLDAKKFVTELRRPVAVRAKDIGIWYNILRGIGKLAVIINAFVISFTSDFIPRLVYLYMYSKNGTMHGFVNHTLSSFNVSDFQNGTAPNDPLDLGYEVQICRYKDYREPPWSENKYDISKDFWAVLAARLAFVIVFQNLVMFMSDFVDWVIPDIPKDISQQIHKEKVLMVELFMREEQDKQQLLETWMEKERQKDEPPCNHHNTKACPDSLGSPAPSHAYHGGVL
Assay: Automated patch clamping (QPatch) assay to measure TMEM16A activity in whole-cell
Assay type: cell-based
Conditions: for EC50: CHO cells expressing human TMEM16A (abc), whole-cell automated patch clamp, Hill fit, read-out: TMEM16A QPATCH assay EC50 V3 EC50; for Emax: CHO, read-out: TMEM16A QPATCH assay EC50 V3 Assay Window (% TMEM16A max activation)
Method in brief: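 Whole-cell currents were recorded by planar automated patch clamp from induced CHO cells (doxycycline 1 μg/mL, 18-24 h), using a −70 mV hold, +70 mV step and −90 to +70 mV ramp. Values: Hill-fitted EC50, and activation scaled between vehicle current and reference-potentiator maximum; 0.3% DMSO final.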

[1] = maximum current at highest dose relative to reference potentiator at maximal concentration (upper limit) and vehicle (lower limit)

CCC(CC)NC(=O)c1cnc(-c2cccc(-c3nc(C(=O)NC(CC)CC)n(CCOC)n3)c2)o1 [Example 15.1, 2-(3-(1-(2-Methoxyethyl)-5-(Pentan-3-Ylcarbamoyl)-1H-1,2,4-Triazol-3-Yl)Phenyl)-N-(Pentan-3-Yl)Oxazole-5-Carboxamide]
EC50: 240 nM | Emax [1]: 155%

CCC(CC)NC(=O)c1cnc(-c2cccc(-c3cc(C(=O)N[C@@H](C)C(=O)OCc4ccccc4)n[nH]3)c2)o1 [Example 3.64, (S)-Benzyl 2-(5-(3-(5-(Pentan-3-Ylcarbamoyl)Oxazol-2-Yl)Phenyl)-1H-Pyrazole-3-Carboxamido)Propanoate Trifluoroacetate]
EC50: 150 nM | Emax [1]: 72%

CCC(CC)NC(=O)c1cnc(-c2cccc(-c3cc(C(=O)N[C@@H](C)C4CCCCC4)n[nH]3)c2)o1 [Example 3.49, (S)-2-(3-(3-((1-Cyclohexylethyl)Carbamoyl)-1H-Pyrazol-5-Yl)Phenyl)-N-(Pentan-3-Yl)Oxazole-5-Carboxamide]
EC50: 170 nM | Emax [1]: 72%

CCC(CC)NC(=O)c1cc(-c2cccc(-c3ncc(C(=O)NCC4CCCCO4)o3)c2)[nH]n1 (centres unmarked) [Example 1.18, 2-(3-(3-(Pentan-3-Ylcarbamoyl)-1H-Pyrazol-5-Yl)Phenyl)-N-((Tetrahydro-2H-Pyran-2-Yl)Methyl)Oxazole-5-Carboxamide]
EC50: 180 nM | Emax [1]: 39%

CCC(CC)NC(=O)c1cnc(-c2cccc(-c3cc(C(=O)NC(C4CC4)C4CCCO4)n[nH]3)c2)o1 (single isomer, unassigned) [Example 3.4 (ii), 2-(3-(3-((Cyclopropyl(Tetrahydrofuran-2-Yl)Methyl)Carbamoyl)-1H-Pyrazol-5-Yl)Phenyl)-N-(Pentan-3-Yl)Oxazole-5-Carboxamide]
EC50: 260 nM | TMEM16A QPATCH assay EC50 V3 Assay Window (% TMEM16A max activation) [1]: 115%

CCOC(=O)[C@@H](NC(=O)c1cnc(-c2cccc(-c3cc(C(=O)NC(C4CC4)C4CC4)n(CCCO)n3)c2)o1)C(C)C [Example 4.5, (S)-Ethyl 2-(2-(3-(5-((Dicyclopropylmethyl)Carbamoyl)-1-(3-Hydroxypropyl)-1 H-Pyrazol-3-Yl)Phenyl)Oxazole-5-Carboxamido)-3-Methylbutanoate]
EC50: 120 nM | Emax [1]: 154%

CCC(CC)NC(=O)c1cnc(-c2cccc(-c3cc(C(=O)NC(CC)C(C)C)n[nH]3)c2)o1 (centres unmarked) [Example 3.29, 2-(3-(3-((2-Methylpentan-3-Yl)Carbamoyl)-1H-Pyrazol-5-Yl)Phenyl)-N-(Pentan-3-Yl)Oxazole-5-Carboxamide]
EC50: 40 nM | Emax [1]: 94%

COC(=O)[C@@H](NC(=O)c1cnc(-c2cccc(-c3cc(C(=O)NC(C4CC4)C4CC4)n(CC(C)(C)O)n3)c2)o1)C(C)C [Example 9.4, (S)-Methyl 2-(2-(3-(5-((Dicyclopropylmethyl)Carbamoyl)-1-(2-Hydroxy-2-Methylpropyl)-1 H-Pyrazol-3-Yl)Phenyl)Oxazole-5-Carboxamido)-3-Methylbutanoate]
EC50: 420 nM | Emax [1]: 105%

CCOC(=O)[C@@H](NC(=O)c1cc(-c2cccc(-c3ncc(C(=O)NC(CC)CC)o3)c2)[nH]n1)C(C)C [Example 3.52, (S)-Ethyl 3-Methyl-2-(5-(3-(5-(Pentan-3-Ylcarbamoyl)Oxazol-2-Yl)Phenyl)-1 H-Pyrazole-3-Carboxamido)Butanoate]
EC50: 30 nM | Emax [1]: 95%

CCC(CC)NC(=O)c1cnc(-c2cccc(-c3nnc(C(=O)NCC4CCCCC4)[nH]3)c2)o1 [Example 13.5, 2-(3-(5-((Cyclohexylmethyl)Carbamoyl)-4H-1,2,4-Triazol-3-Yl)Phenyl)-N-(Pentan-3-Yl)Oxazole-5-Carboxamide]
EC50: 30 nM | Emax [1]: 88%

CCC(CC)NC(=O)c1cc(-c2cccc(-c3ncc(C(=O)N[C@@H](C)c4ccccc4)o3)c2)[nH]n1 [Example 1.21, (S)-2-(3-(3-(Pentan-3-Ylcarbamoyl)-1H-Pyrazol-5-Yl)Phenyl)-N-(1-Phenylethyl)Oxazole-5-Carboxamide]
EC50: 930 nM | Emax [1]: 92%

CCOC(=O)[C@@H](NC(=O)c1cnc(-c2cccc(-c3nnc(C(=O)N[C@@H](C)C4CC4)[nH]3)c2)o1)C(C)C [Example 12.2, (S)-Ethyl 2-(2-(3-(5-(((S)-1-Cyclopropylethyl)Carbamoyl)-4H-1,2,4-Triazol-3-Yl)Phenyl)Oxazole-5-Carboxamido)-3-Methylbutanoate]
EC50: 50 nM | Emax [1]: 112%

CCC(CC)NC(=O)c1cnc(-c2cccc(-c3cc(C(=O)NC4(C5CC5)CC4)n[nH]3)c2)o1 [Example 3.6, 2-(3-(3-([1,1′-Bi(Cyclopropan)]-1-Ylcarbamoyl)-1H-Pyrazol-5-Yl)Phenyl)-N-(Pentan-3-Yl)Oxazole-5-Carboxamide]
EC50: 170 nM | Emax [1]: 122%

COC(=O)[C@@H](NC(=O)c1nc(-c2cccc(-c3ncc(C(=O)NC(C4CC4)C4CC4)o3)c2)n[nH]1)C(C)C [Example 13.7, (S)-Methyl 2-(3-(3-(5-((Dicyclopropylmethyl)Carbamoyl)Oxazol-2-Yl)Phenyl)-1H-1,2,4-Triazole-5-Carboxamido)-3-Methylbutanoate]
EC50: 470 nM | Emax [1]: 121%

CCC(CC)NC(=O)c1cnc(-c2cccc(-c3cc(C(=O)NCc4ccc5c(c4)OCO5)n[nH]3)c2)o1 [Example 3.22, 2-(3-(3-((Benzo[d][1,3]Dioxol-5-Ylmethyl)Carbamoyl)-1H-Pyrazol-5-Yl)Phenyl)-N-(Pentan-3-Yl)Oxazole-5-Carboxamide]
EC50: 140 nM | Emax [1]: 60%

CCOC(=O)[C@@H](NC(=O)c1cnc(-c2cccc(-c3cc(C(=O)NC(C4CC4)C4CC4)[nH]n3)c2)o1)C(C)C [Example 1.12, (S)-Ethyl 2-(2-(3-(5-((Dicyclopropylmethyl)Carbamoyl)-1H-Pyrazol-3-yl)Phenyl)Oxazole-5-Carboxamido)-3-Methylbutanoate]
EC50: 20 nM | Emax [1]: 87%

CCOC(=O)[C@@H](NC(=O)c1cnc(-c2cccc(-c3cc(C(=O)NC(C4CC4)C4CC4)n(CC(C)(C)O)n3)c2)o1)C(C)C [Example 9.6, (S)-Ethyl 2-(2-(3-(5-((Dicyclopropylmethyl)Carbamoyl)-1-(2-Hydroxy-2-Methylpropyl)-1 H-Pyrazol-3-Yl)Phenyl)Oxazole-5-Carboxamido)-3-Methylbutanoate]
EC50: 30 nM | Emax [1]: 100%

CCOC(=O)[C@@H](NC(=O)c1cc(-c2cccc(-c3ncc(C(=O)NC(CC)CC)o3)c2)nn1CCOP(=O)(OCC)OCC)C(C)C [Example 11.0, (S)-Ethyl 2-(1-(2-((Diethoxyphosphoryl)Oxy)Ethyl)-3-(3-(5-(Pentan-3-Ylcarbamoyl)Oxazol-2-Yl)Phenyl)-1H-Pyrazole-5-Carboxamido)-3-Methylbutanoate]
EC50: 610 nM | Emax [1]: 128%

CCC(CC)NC(=O)c1cnc(-c2cccc(-c3cc(C(=O)NCc4ccc(C5(C(F)(F)F)N=N5)cc4)n[nH]3)c2)o1 [Example 3.19, N-(Pentan-3-Yl)-2-(3-(3-((4-(3-(Trifluoromethyl)-3H-Diazirin-3-Yl)Benzyl)Carbamoyl)-1 H-Pyrazol-5-Yl)Phenyl)Oxazole-5-Carboxamide]
EC50: 270 nM | Emax [1]: 69%

CCC(CC)NC(=O)c1cc(-c2cccc(-c3ncc(C(=O)N[C@@H](CC(C)C)C(=O)OC)o3)c2)[nH]n1 [Example 1.26, (S)-Methyl 4-Methyl-2-(2-(3-(3-(Pentan-3-Ylcarbamoyl)-1H-Pyrazol-5-yl)Phenyl)Oxazole-5-Carboxamido)Pentanoate]
EC50: 640 nM | Emax [1]: 91%

CCOC(=O)[C@H](C)NC(=O)c1cc(-c2cccc(-c3ncc(C(=O)NC(CC)CC)o3)c2)[nH]n1 [Example 3.63, (S)-Ethyl 2-(5-(3-(5-(Pentan-3-Ylcarbamoyl)Oxazol-2-Yl)Phenyl)-1H-Pyrazole-3-Carboxamido)Propanoate Trifluoroacetate]
EC50: 860 nM | Emax [1]: 72%

CCC(CC)NC(=O)c1cnc(-c2cccc(-c3cc(C(=O)N[C@H](C)c4ccccc4)n[nH]3)c2)o1 [Example 3.51, (R)-N-(Pentan-3-Yl)-2-(3-(3-((1-Phenylethyl)Carbamoyl)-1H-Pyrazol-5-Yl)Phenyl)Oxazole-5-Carboxamide]
EC50: 110 nM | Emax [1]: 68%
